Laboratory results taken from ChEMBL document CHEMBL4004802, “α-Glucosidase Inhibitors from Malbranchea flavorosea” (J Nat Prod, 2017).
The source made the active and inactive calls. The calls are words filed in the database; no cut-off is given here.

Columns and labels:
[1] = Inhibition of Saccharomyces cerevisiae alpha-glucosidase using p-nitrophenyl-alpha-D-glucopyranoside as substrate after 30 mins
Mus musculus [2] = assay: Antihyperglycemic activity in ICR mouse assessed as decrease in postprandial blood glucose levels at 5 mg/kg administered 30 mins followed by oral sucrose challenge measured after 30 to 120 mins by OSTT; type: functional, organism-based
Mus musculus [3] = assay: Antihyperglycemic activity in nicotinamide/streptozotocin-induced ICR mouse hyperglycemic model assessed as decrease in postprandial blood glucose levels at 5 mg/kg administered 30 mins followed by oral sucrose challenge measured after 30 to 120 mins by OSTT; type: functional, organism-based
Mus musculus [4] = assay: Antihyperglycemic activity in ICR mouse assessed as decrease in postprandial blood glucose levels at 3.2 to 31.6 mg/kg, po administered 30 mins followed by oral sucrose challenge measured after 30 to 120 mins by OSTT; type: functional, organism-based
Mus musculus [5] = assay: Antihyperglycemic activity in nicotinamide/streptozotocin-induced ICR mouse hyperglycemic model assessed as decrease in postprandial blood glucose levels at 3.2 to 31.6 mg/kg, po administered 30 mins followed by oral sucrose challenge measured after 30 to 120 mins by OSTT; type: functional, organism-based

Structure (SMILES) | IC50 [1] | Activity (Mus musculus [2]) | Activity (Mus musculus [3]) | Activity (Mus musculus [4]) | Activity (Mus musculus [5])
C[C@H]1O[C@H](O[C@H]2[C@H](O)[C@@H](O)[C@@H](O[C@H]3[C@H](O)[C@@H](O)C(O)O[C@@H]3CO)O[C@@H]2CO)[C@H](O)[C@@H](O)[C@@H]1N[C@H]1C=C(CO)[C@@H](O)[C@H](O)[C@H]1O (stereo partly drawn) [ACARBOSE] | 0.5 mM | Active | Active |  | 
C[C@H](O)[C@H](O)C[C@H]1OCc2c(O)cccc21 | 2.25 mM |  |  |  | 
C=C1OC(=O)[C@]2([C@H](C)C=CC(=O)[C@@H]2O)[C@H]1O [MASSARIGENIN C] | 1.25 mM |  |  | Active | Active
O=C1C=Cc2cccc(O)c2CO1 | 1.07 mM |  |  |  | 
